Source: PubChem BioAssay (NCI)
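These data come from cells grown in 96-well plates and exposed to compound for 48 hours at five concentrations. TGI is the concentration that stops growth completely.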 Where a SMILES comes first, the peptide text is derived from it. [ ]: non-standard residue; d: D form. The star is where a group is joined. Tyr(3-Br) = N[C@@H](Cc1ccc(O)c(Br)c1)C(=O)O; Boc = CC(C)(C)OC(=O)*

What was measured:
Assay in all cases: DTP human tumour cell line panel, 48 h
KM12 colon = test system: KM12 colon
HOP-92 NSCLC = test system: HOP-92 NSCLC
BT-549 breast = test system: BT-549 breast
NCI-H23 lung = test system: NCI-H23 lung
HCT-15 colon = test system: HCT-15 colon
CCRF-CEM leukemia = test system: CCRF-CEM leukemia
SN12C renal = test system: SN12C renal
SK-OV-3 ovarian = test system: SK-OV-3 ovarian
OVCAR-4 ovarian = test system: OVCAR-4 ovarian
SR leukemia = test system: SR leukemia
HL-60(TB) leukemia = test system: HL-60(TB) leukemia
TK-10 renal = test system: TK-10 renal
HCT-116 colon = test system: HCT-116 colon
SK-MEL-28 melanoma = test system: SK-MEL-28 melanoma
HCC-2998 colon = test system: HCC-2998 colon
M14 melanoma = test system: M14 melanoma
K-562 leukemia = test system: K-562 leukemia
LOX IMVI melanoma = test system: LOX IMVI melanoma
CAKI-1 renal = test system: CAKI-1 renal
MDA-MB-231 breast = test system: MDA-MB-231 breast

Compound | TGI (KM12 colon) [µM] | TGI (HOP-92 NSCLC) [µM] | TGI (BT-549 breast) [µM] | TGI (NCI-H23 lung) [µM] | TGI (HCT-15 colon) [µM] | TGI (CCRF-CEM leukemia) [µM] | TGI (SN12C renal) [µM] | TGI (SK-OV-3 ovarian) [µM] | TGI (OVCAR-4 ovarian) [µM] | TGI (SR leukemia) [µM] | TGI (HL-60(TB) leukemia) [µM] | TGI (TK-10 renal) [µM] | TGI (HCT-116 colon) [µM] | TGI (SK-MEL-28 melanoma) [µM] | TGI (HCC-2998 colon) [µM] | TGI (M14 melanoma) [µM] | TGI (K-562 leukemia) [µM] | TGI (LOX IMVI melanoma) [µM] | TGI (CAKI-1 renal) [µM] | TGI (MDA-MB-231 breast) [µM]
CCOc1ccc(NC(=O)/C(=N\NC(C)(C)C)C2C(=O)Nc3ccccc3S2=O)cc1 (configuration not stated) | > 100 | > 100 | > 100 | > 100 | > 100 | > 100 | > 100 | > 100 | > 100 | > 100 | > 100 | > 100 | > 100 | > 100 | > 100 | > 100 | > 100 |  |  | 
COC(=O)[C@H](Cc1ccc(O)c(Br)c1)NC(=O)[C@H](Cc1ccc(O)cc1)NC(=O)OC(C)(C)C (Boc-Tyr-[Tyr(3-Br)]-OMe) | > 100 | 93 | 98.1 | 71.5 | 44 | 51.2 | > 100 | > 100 | > 100 | > 100 | > 100 | > 100 | > 100 | > 100 | > 100 | > 100 | > 100 | 42.6 | > 100 | 
CC(C)(C)NC(=O)NC12CC3CC(CC(F)(C3)C1)C2 | > 100 | > 100 |  | > 100 |  | > 100 |  | > 100 |  |  | > 100 | > 100 | > 100 | > 100 | > 100 | > 100 | > 100 | > 100 |  | 
CN(CCO)c1nc(N)cc(=O)[nH]1 | > 100 | > 100 |  | > 100 | > 100 | > 100 | > 100 | > 100 |  | > 100 | > 100 | > 100 | > 100 | > 100 | > 100 | > 100 | > 100 | > 100 | > 100 | 
CCN(CC)CCCC(C)Nc1ccnc2ccc3nn(C)nc3c12 (configuration not stated) | > 100 |  |  | > 100 |  | > 100 | > 100 | > 100 |  | > 100 | > 100 | > 100 | > 100 |  | > 100 | 90.1 | 86.3 | 41.1 | > 100 | 
NC(=O)c1coc(C2OC(CO)C(O)C2O)n1 (configuration not stated) | > 100 | > 100 |  | > 100 | > 100 | > 100 | > 100 | > 100 | > 100 | > 100 | > 100 | > 100 | > 100 | > 100 | > 100 | > 100 | > 100 | > 100 |  | 
COc1cc(C=C2C(C)=NN(c3cccc(Cl)c3)C23C(Cl)C(=O)N3c2nc3ccccc3s2)ccc1O (configuration not stated) | 30.1 | 26.1 |  | 57.4 | 52.2 | 38.8 |  | 59.5 | > 100 | 17.2 | 36 | > 100 | 45 | > 100 | 9.16 | 41.9 | 25.2 | 40.2 | 71.5 | 26.7
COc1cc(NC(C)=O)ccc1C(=O)NN1C(=O)C(Cl)C1c1ccco1 (configuration not stated) | > 100 | > 100 | > 100 | > 100 | > 100 | > 100 | > 100 |  | > 100 | > 100 | > 100 |  | > 100 | > 100 |  | > 100 | > 100 | > 100 | > 100 | 
C/C=C1/CN2CCC3(O)c4ccccc4N4C=C(C(=O)OC)C1CC2C43O (configuration not stated) | > 100 | > 100 | > 100 | > 100 | > 100 | > 100 | > 100 | > 100 | > 100 | > 100 | > 100 | > 100 | > 100 | > 100 | > 100 | > 100 | > 100 | > 100 | > 100 | 
Cc1cc(S(=O)(=O)/N=C(\[N-]S(=O)(=O)c2ccc(Cl)cc2)[n+]2ccc(N(C)C)cc2)c(S)cc1Cl | > 100 |  |  | > 100 | > 100 | > 100 |  | > 100 | > 100 | 3.13 | > 100 | > 100 | 44.7 | > 100 | > 100 | > 100 | > 100 | > 100 | > 100 | > 100
Clc1ccccc1C1=NN(c2ccccc2)C2c3ccccc3OCC12 (configuration not stated) | > 100 | > 100 |  | > 100 |  | > 100 |  | > 100 |  |  | > 100 | > 100 | > 100 | > 100 | > 100 |  | > 100 | > 100 |  | 
CCCCOC(=O)NC(Nc1cccc(C(F)(F)F)c1)(C(F)(F)F)C(F)(F)F | > 100 | 64.7 |  | > 100 | > 100 | > 100 | > 100 |  | > 100 | 60.4 | 56.2 | > 100 | > 100 | > 100 |  | > 100 | > 100 | > 100 | > 100 | > 100
CC(=O)c1ccc2c(ccc(=O)n2C)c1 | > 100 | > 100 |  | > 100 | > 100 | > 100 | > 100 | > 100 | > 100 |  | > 100 | > 100 | > 100 | > 100 | > 100 | > 100 | > 100 | > 100 | > 100 | 
c1ccc(P(CCP(c2ccccn2)c2ccccn2)c2ccccc2)cc1 | > 100 | > 69.9 | > 100 | > 100 | > 100 |  | > 100 | > 100 | > 100 | > 100 | 78.2 | > 100 | > 100 | > 100 | > 100 | > 100 | > 100 | > 100 | > 100 | 
CCCC(=O)O[C@H]1C=C2C[C@@]34SS[C@]5(CC6=C[C@H](OC(C)=O)[C@@H]7O[C@@H]7[C@H]6N5C3=O)C(=O)N4[C@@H]2[C@H]2O[C@H]21 | 2.29 | 0.0941 |  | 0.291 | 1.43 | 8.41 | 0.0111 | 3.21 | 0.887 | 50 | 2.71 | 0.24 | 0.0285 | 0.235 | 0.0194 | 0.0545 | 5.83 | 0.131 | 1.09 | 0.246
CCN1C[C@]2(C)CC[C@H](OC)C34C1C([C@H](OC(C)=O)[C@@H]32)[C@@]1(OC)C[C@H](OC)[C@H]2C[C@@H]4[C@@H]1[C@H]2O | > 100 | > 100 |  | > 100 | > 100 | > 100 | > 100 | > 100 | > 100 |  | > 100 | > 100 | > 100 | > 100 | > 100 | > 100 | > 100 | > 100 | > 100 | 
COc1ccc(C2Oc3cc(OC)c(O)c(C)c3[C@H]2C)cc1 (some centres not stated) | > 100 | > 100 |  | > 100 | > 100 | > 100 |  | > 100 | > 100 |  | 76.7 | > 100 | > 100 | > 100 | > 100 | > 100 | > 100 | > 100 | > 100 | 
N#CC(C#N)=C(N)/C(C#N)=C/c1ccc2ccccc2n1 | 41.5 | > 100 | 91.1 | > 100 | 80.1 | > 100 | > 100 | > 100 | > 100 |  |  | > 100 | 28.4 | 43.2 | > 100 | > 100 | > 100 | 46 | 65.1 | 72.5
Cc1ccc(S(=O)(=O)N2C[C@](O)(c3ccccc3)[C@H]2C)cc1 | > 100 | > 100 |  | > 100 | > 100 | > 100 | > 100 | > 100 | > 100 |  | > 100 | > 100 | > 100 | > 100 |  | > 100 |  | > 100 | > 100 | > 100
c1ccc(C2=NOC3(c4ccccc4)SC4CCCCC4CN23)cc1 (configuration not stated) | 88.9 | 59.4 |  | > 100 | > 100 | 31.6 | > 100 | > 100 | > 100 | > 100 | > 100 | > 100 | 50.4 | > 100 | > 100 | 49.3 | > 100 | 34 | 63.8 | 
C=C1C(=O)OC2/C=C(/C)C3CC(O)C(C)(CC(OC(=O)/C(C)=C/C)C12)O3 (configuration not stated) | 11.3 | 8.68 |  | 16.9 | 3.61 | 8.1 | 11.3 | > 65.2 | 20.6 | > 24 | 18.3 | 20.1 | 3.08 | 8.35 | 28.4 | 9.08 | > 28.8 | 4.4 | 4.86 | 
CC1(C)OB(O)OC1(C)C | > 100 |  |  | > 100 | > 100 | > 100 | > 100 | > 100 | > 100 |  | > 100 | > 100 | > 100 | > 100 | > 100 | > 100 | > 100 | > 100 | > 100 | 
CN(C)/N=C(/c1nc2ccc([N+](=O)[O-])cc2[nH]c1=O)C(O)c1ccco1 (configuration not stated) | > 100 | > 100 |  | > 100 | > 100 | > 100 | > 100 | > 100 | > 100 | > 100 | > 100 |  | > 100 | > 100 | > 100 | > 100 | > 100 | > 100 | > 100 | 
O=c1[nH]c2cc([N+](=O)[O-])ccc2nc1/C(=N/Nc1ccccc1)C(O)c1ccc(C(O)/C(=N\Nc2ccccc2)c2cnc3cc([N+](=O)[O-])ccc3n2)cc1 (configuration not stated) | > 100 | > 100 |  | > 100 |  | > 100 | > 100 | > 100 | > 100 | > 100 | > 100 | > 100 | > 100 | > 100 | 87.1 | > 100 | > 100 |  | > 100 | 
Cc1ccc(N=N/C(=N/NC(=O)c2cc(Cl)ccc2C(=O)c2ccccc2)c2ccc(N(CCC#N)CCC#N)cc2C)cc1 | > 100 |  | > 100 | > 100 | 57.8 | 13.1 | 87.7 | 40 | 82.4 |  |  | > 100 | 31.5 | > 100 | 43.9 | 41 | > 100 |  | 79.3 | 24.8
CN(C)CC1COC2Cc3ccccc3C1O2 (configuration not stated) | > 100 | > 100 |  | > 100 | > 100 | > 100 | > 100 | > 100 | > 100 | > 100 | > 100 | > 100 | > 100 | > 100 | > 100 | > 100 | > 100 | > 100 | > 100 | > 100
